Experimental data taken from patent US20190022089A1, “PHARMACEUTICAL COMPOSITIONS AND DOSAGE FORMS” (Ignyta, Inc., priority 2017, published 2019).

How the values were obtained:
[1] = Comparative pharmacokinetic study of F1 and F2 formulations; assay type: in vivo, human; settings: 800 mg fixed dose, 23 healthy subjects
Procedure: A comparative pharmacokinetic study in healthy, human subjects was conducted comparing a 200 mg dosage strength of pharmaceutical composition F1 (as described in Example 11) with a 200 mg dosage strength pharmaceutical composition F2 (as described in Example 10).
Pharmaceutical compositions F1 and F2, along with and lansoprazole, were administered orally with approximately 240 mL of water, according to the randomization scheme. Lansoprazole was administered as 30 mg lansoprazole delayed-release capsules.
Subjects were randomized into two groups, A and B. Periods 1 and 2 were conducted as a crossover design under fasting conditions where all subjects received F1 and F2. […] A representative summary of Periods 1, 2, and 3 and the pharmaceutical compositions subjects in groups A and B will receive in each Period is found below.
Subjects were randomized and received 3 out of 4 treatments in one of the following sequences: […] (i.e., Periods 1 and 2 were conducted as a crossover design under fasting conditions [Treatments A and B]). […] Each subject received each of the 3 assigned treatments on one occasion.
Treatment A: 30 mg lansoprazole (1×30 mg capsule), for 9 consecutive days (within ±1 hour of dosing time on Day 1), with 800 mg F1 (4×200 mg capsules) administered under fasting conditions 1.5 hours after administration of lansoprazole on Day 4. […]

[2] = Early clinical studies in humans, formulation without acidulant (exposure); settings: for AUC higher when taken with food: formulation without acidulant
[3] = Single-dose food effect study in dogs; assay type: in vivo; settings: formulation that did not comprise at least one acidulant
Description: Such food effects can cause difficulty during human testing of drugs as the fed or fasted condition of the patient can cause exposure or bioavailability of drugs to vary widely.

[4] = target: TrkB (Homo sapiens, UniProt Q16620); settings: cited from earlier work
Sequence of TrkB (Q16620 32-822): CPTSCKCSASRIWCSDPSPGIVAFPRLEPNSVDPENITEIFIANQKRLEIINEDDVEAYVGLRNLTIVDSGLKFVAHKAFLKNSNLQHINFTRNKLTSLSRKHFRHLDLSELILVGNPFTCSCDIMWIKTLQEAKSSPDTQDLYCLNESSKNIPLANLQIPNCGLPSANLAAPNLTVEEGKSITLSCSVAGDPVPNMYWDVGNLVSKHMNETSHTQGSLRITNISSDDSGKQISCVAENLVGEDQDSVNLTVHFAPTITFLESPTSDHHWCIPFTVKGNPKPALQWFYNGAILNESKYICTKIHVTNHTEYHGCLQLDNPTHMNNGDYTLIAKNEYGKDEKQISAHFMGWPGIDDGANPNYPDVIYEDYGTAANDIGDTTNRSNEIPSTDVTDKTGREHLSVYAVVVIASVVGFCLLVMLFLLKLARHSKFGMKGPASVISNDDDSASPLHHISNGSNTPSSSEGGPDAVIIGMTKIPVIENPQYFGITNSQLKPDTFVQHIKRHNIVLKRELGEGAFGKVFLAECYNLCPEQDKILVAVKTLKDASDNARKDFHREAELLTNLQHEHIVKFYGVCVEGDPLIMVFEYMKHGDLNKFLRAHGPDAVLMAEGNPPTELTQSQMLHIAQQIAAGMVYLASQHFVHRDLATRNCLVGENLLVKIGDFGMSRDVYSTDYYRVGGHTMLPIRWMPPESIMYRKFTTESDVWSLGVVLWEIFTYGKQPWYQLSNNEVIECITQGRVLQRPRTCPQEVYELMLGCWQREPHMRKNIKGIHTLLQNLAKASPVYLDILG

[5] = system: cancer having at least one molecular alteration in one or more of ALK, ROS1, TrkA, TrkB and TrkC; test: Early clinical studies in humans (antitumor effects); assay type: in vivo; settings: patients having various forms of cancer
[6] = Suitability of acids in 1:1 admixture: storage stability (appearance, HPLC); assay type: physicochemical; settings: for Most abundant impurity (area %): three months storage, HPLC
Procedure: The mixtures were prepared in duplicate for each sample, and stored in open top, 4 mL glass vials at (1) 60° C./dry heat and (2) 40° C. and 75% relative humidity (RH).
All admixture samples and the control samples stored at the 60° C. and dry heat condition remained as dry powders.
The HPLC traces analyses were conducted on an Agilent 1100 LC, equipped with Agilent Diode Array Detector and Chemstation Software using the conditions found in the table below.

[7] = target: TrkC (Homo sapiens, UniProt Q16288); settings: cited from earlier work
Sequence of TrkC (Q16288 32-839): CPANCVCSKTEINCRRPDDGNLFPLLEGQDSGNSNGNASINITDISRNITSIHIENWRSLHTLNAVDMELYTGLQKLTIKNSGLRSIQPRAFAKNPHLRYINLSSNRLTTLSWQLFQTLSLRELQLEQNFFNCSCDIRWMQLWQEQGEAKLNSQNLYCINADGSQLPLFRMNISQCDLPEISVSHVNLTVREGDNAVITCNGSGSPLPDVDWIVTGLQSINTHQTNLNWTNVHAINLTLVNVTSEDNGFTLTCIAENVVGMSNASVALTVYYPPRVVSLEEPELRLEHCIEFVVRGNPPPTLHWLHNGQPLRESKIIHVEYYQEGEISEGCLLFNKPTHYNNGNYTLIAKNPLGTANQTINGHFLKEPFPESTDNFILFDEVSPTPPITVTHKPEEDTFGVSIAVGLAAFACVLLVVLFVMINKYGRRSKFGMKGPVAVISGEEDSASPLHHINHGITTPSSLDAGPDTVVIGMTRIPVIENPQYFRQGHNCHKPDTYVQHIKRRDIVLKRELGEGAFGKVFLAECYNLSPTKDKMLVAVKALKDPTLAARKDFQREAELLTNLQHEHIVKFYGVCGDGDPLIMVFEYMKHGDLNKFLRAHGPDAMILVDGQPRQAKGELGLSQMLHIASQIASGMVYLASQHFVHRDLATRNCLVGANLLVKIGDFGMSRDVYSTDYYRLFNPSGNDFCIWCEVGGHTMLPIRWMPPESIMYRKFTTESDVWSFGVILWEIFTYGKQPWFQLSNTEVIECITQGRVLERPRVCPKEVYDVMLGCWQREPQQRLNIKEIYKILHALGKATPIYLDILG

[8] = target: ALK (Homo sapiens, UniProt Q9UM73); settings: cited from earlier work
Sequence of ALK (Q9UM73 19-1620): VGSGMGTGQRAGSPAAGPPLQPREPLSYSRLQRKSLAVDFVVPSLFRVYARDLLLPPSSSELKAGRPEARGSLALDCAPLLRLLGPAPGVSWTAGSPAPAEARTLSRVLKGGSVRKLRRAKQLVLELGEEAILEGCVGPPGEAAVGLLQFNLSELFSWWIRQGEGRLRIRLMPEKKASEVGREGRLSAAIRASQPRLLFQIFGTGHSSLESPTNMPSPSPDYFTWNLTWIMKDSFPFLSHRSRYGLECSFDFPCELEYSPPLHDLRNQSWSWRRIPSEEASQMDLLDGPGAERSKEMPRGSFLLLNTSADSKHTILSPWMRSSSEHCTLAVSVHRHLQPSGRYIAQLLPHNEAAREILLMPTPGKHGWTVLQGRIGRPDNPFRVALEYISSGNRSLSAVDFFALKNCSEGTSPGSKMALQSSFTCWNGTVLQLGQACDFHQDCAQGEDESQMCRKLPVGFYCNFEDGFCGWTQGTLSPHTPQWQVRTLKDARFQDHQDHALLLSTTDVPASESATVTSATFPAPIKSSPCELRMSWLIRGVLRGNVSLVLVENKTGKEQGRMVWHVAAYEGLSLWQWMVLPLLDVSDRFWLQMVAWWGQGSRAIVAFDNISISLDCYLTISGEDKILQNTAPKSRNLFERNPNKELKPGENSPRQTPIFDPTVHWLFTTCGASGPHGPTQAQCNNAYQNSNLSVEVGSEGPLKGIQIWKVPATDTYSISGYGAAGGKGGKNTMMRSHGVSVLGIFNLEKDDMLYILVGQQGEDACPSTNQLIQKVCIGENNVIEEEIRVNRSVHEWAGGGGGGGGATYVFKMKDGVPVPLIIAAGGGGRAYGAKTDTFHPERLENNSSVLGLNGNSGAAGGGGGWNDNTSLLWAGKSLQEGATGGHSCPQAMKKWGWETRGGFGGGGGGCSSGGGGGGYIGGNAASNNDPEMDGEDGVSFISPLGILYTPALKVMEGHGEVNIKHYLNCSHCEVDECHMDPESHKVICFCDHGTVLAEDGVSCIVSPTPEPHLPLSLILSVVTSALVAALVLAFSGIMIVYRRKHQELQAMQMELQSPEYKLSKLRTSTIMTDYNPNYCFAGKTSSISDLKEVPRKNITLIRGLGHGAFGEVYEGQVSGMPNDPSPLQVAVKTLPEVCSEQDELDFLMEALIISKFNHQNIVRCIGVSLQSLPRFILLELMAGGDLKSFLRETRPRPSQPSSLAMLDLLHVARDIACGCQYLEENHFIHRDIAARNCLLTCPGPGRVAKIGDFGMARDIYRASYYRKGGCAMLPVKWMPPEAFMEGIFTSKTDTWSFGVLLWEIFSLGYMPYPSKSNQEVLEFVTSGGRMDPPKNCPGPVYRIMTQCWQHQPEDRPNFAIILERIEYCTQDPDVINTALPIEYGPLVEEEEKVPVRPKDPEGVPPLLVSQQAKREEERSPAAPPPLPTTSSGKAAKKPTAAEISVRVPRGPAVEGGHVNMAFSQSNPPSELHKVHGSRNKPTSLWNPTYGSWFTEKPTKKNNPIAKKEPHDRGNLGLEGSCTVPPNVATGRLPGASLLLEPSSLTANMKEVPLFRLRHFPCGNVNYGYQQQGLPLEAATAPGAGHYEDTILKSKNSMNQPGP

- AUC higher when taken with food ([2]; 200 mg/m^2/day): approximately 200%
- AUC higher when taken with food ([2]; 400 mg/m^2/day): ~50%
- Cmax higher with food ([2]; both doses (200 and 400 mg/m^2/day)): approximately 150%
- exposures with concomitant proton pump inhibitor drugs (PPIs), such as lansoprazole ([2]; some patients): variable
- exposure levels, fed compared to fasting conditions [3]: approximately 2 fold
- Most abundant impurity (area %) ([6]; 40° C./75% RH, listed as Control): 0.13%
- Most abundant impurity (area %) ([6]; 60° C. Dry Heat): 0.13%
- physical state observed ([6]; 13 days of storage, 40° C. and 75% RH): remained dry
Structure (SMILES): CN1CCN(c2ccc(C(=O)Nc3n[nH]c4ccc(Cc5cc(F)cc(F)c5)cc34)c(NC3CCOCC3)c2)CC1 [N-[5-(3,5-difluorobenzyl)-1H-indazol-3-yl]-4-(4-methyl-piperazin-1-yl)-2-(tetrahydro-pyran-4-ylamino)-benzamide]
- correlation of total exposure with body weight or body surface area [1]: did not correlate with body weight or body surface area
- inhibition [4]: potent inhibitor
- antitumor effects [5]: antitumor effects
- inhibition [7]: potent inhibitor
- inhibition [8]: potent inhibitor
